Results published in the Deep4Chem optical property database.
“And” between values parts separate entries of the source, which are not always exact repeats. Equal entries are not always repeated. One block for each compound: values may come before it.

Assay: solvent given as SMILES

SMILES: COc1ccc(C2=[N+]3C(=Nc4c(-c5ccc6ccccc6c5)c(Br)c(-c5ccc(OC)cc5)n4[B-]3(F)F)C(c3ccc4ccccc4c3)=C2Br)cc1
emission maximum (in ClCCl): 734 nm

SMILES: c1ccc(-c2nc(-c3ccccc3)nc(-c3ccc(-n4c5ccccc5c5cc6c7ccccc7n7c8ccccc8c(c54)c67)cc3)n2)cc1
emission maximum (in Cc1ccccc1): 450 nm
emission maximum (in O=P(c1ccccc1)(c1ccccc1)c1ccc2oc3ccc(P(=O)(c4ccccc4)c4ccccc4)cc3c2c1): 460 nm

SMILES: F[B-]1(F)n2c(c3cccc4cccc2c43)=Nc2cccc(Cl)[n+]21
emission maximum (in C1CCOC1): 503 nm
emission maximum (in CC#N): 502 nm
emission maximum (in CCCCCC): 498 nm
emission maximum (in Cc1ccccc1): 503 nm
emission maximum (in ClCCl): 526 nm

SMILES: Cc1cc(-n2c3ccccc3c3ccccc32)ccc1-c1ccc(S(=O)(=O)c2ccccc2)cc1C
emission maximum (in C1CCOC1): 401.77 nm
emission maximum (in CC#N): 450.48 nm
emission maximum (in Cc1ccccc1): 349 nm
emission maximum (in ClCCl): 419.86 nm

SMILES: CCCc1ccc(C#Cc2cc(C#Cc3ccc(N(C)C)cc3)c3ccc4c(C#Cc5ccc(N(C)C)cc5)cc(C#Cc5ccc(CCC)cc5)c5ccc2c3c54)cc1
emission maximum (in ClCCl): 591 nm

SMILES: CN(C)c1ccc(C(=O)Nc2cccc(Br)c2)cc1
emission maximum (in C1CCCCC1): 338 nm
emission maximum (in C1CCOC1): 455 nm
emission maximum (in CC#N): 496 nm
emission maximum (in CCOCC): 445 nm

SMILES: CC1(C)c2ccccc2N(c2ccc3c(c2)C(C)(C)c2cc(N4c5ccccc5C(C)(C)c5ccccc54)ccc2S3(=O)=O)c2ccccc21
emission maximum (in C1CCOC1): 473.1 nm
emission maximum (in CC#N): 526.32 nm
emission maximum (in Cc1ccccc1): 451.46 nm and 453.62 nm
emission maximum (in ClCCl): 504 nm

SMILES: O=S1(=O)C2=C(c3ccc(N(c4ccccc4)c4ccccc4)cc31)C1(C3=C(c4ccccc41)S(=O)(=O)c1cc(N(c4ccccc4)c4ccccc4)ccc13)c1ccccc12
emission maximum (in C1CCOC1): 561 nm
emission maximum (in CC#N): 598 nm
emission maximum (in CCCCCC): 521 nm
emission maximum (in Cc1ccccc1): 543 nm
emission maximum (in ClCCl): 577 nm

SMILES: Cc1cccc2nc3c(=O)n(C)c(=O)nc-3n(C)c12
emission maximum (in CC#N): 532 nm

SMILES: N#Cc1cc(-c2ccc(F)cc2)cnc1O
emission maximum (in C1COCCO1): 422 nm
emission maximum (in CC1CCCCC1): 425 nm
emission maximum (in CC#N): 423 nm
emission maximum (in CC(C)O): 424 nm
emission maximum (in CCO): 425 nm
emission maximum (in CO): 425 nm
emission maximum (in CS(C)=O): 427 nm
emission maximum (in ClC(Cl)(Cl)Cl): 429 nm
emission maximum (in O): 425 nm

SMILES: CC(C)(C)c1cc(C(C)(C)C)c2oc3c(c2c1)C=CN1C(=O)C2=C4c5oc6c(C(C)(C)C)cc(C(C)(C)C)cc6c5C=CN4C(=O)C2=C31
emission maximum (in CN(C)C=O): 658 nm
emission maximum (in ClC(Cl)Cl): 651 nm

SMILES: Cc1ccc2c(c1)c1cc(C)ccc1n2-c1c(-n2c3ccccc3c3ccccc32)c(C#N)c(-n2c3ccccc3c3ccccc32)c(-n2c3ccc(C)cc3c3cc(C)ccc32)c1-n1c2ccccc2c2ccccc21
emission maximum (in Cc1ccccc1): 480 nm

SMILES: CCN1CCCc2cc3c(cc21)Oc1cc2c(cc1=N3)C(CS(=O)(=O)[O-])CC(C)(C)[N+]=2CCCC(=O)[O-] (stereo not drawn)
emission maximum (in O): 690 nm

SMILES: COc1ccc(C#Cc2c(C#Cc3ccc(OC)cc3)c(C#Cc3ccc(OC)cc3)c(C#Cc3ccc(OC)cc3)c(C#Cc3ccc(OC)cc3)c2C#Cc2ccc(OC)cc2)cc1
emission maximum (in ClCCl): 466 nm

SMILES: Cc1ccc2c(c1)C1(c3ccccc3-c3ccccc31)c1cc(C)ccc1N2c1ccc2c(c1)Sc1ccccc1P2(=S)c1ccccc1 (stereo not drawn)
emission maximum (in Cc1ccccc1): 454.61 nm

SMILES: CC1=C(c2ccccc2)C(C)=[N+]2C1=C(c1c(-c3ccccn3)nc3ccccn13)c1c(C)cc(C)n1[B-]2(F)F
emission maximum (in ClCCl): 566 nm

SMILES: CC(C)(C)c1ccc2c(c1)c1cc(C(C)(C)C)ccc1n2-c1ccc2oc3nc4oc5cc(C(F)(F)F)ccc5c4cc3c2c1
emission maximum (in ClC(Cl)Cl): 466 nm

SMILES: O=C(O)COc1ccc2[nH]c3c(c2c1)CCCC3=O
emission maximum (in C1CCOC1): 419.81 nm
emission maximum (in C1COCCO1): 404.04 nm
emission maximum (in CC#N): 419.23 nm
emission maximum (in CCCCCCCCCCCCO): 449.42 nm
emission maximum (in CCCCCCCCCCO): 449.81 nm
emission maximum (in CCCCCCCCO): 456.15 nm
emission maximum (in CCCCCCO): 469.04 nm
emission maximum (in CCCCO): 464.23 nm
emission maximum (in CCO): 472.12 nm
emission maximum (in CCOC(C)=O): 410 nm
emission maximum (in CN(C)C=O): 430 nm
emission maximum (in CO): 491.73 nm
emission maximum (in CS(C)=O): 426.92 nm
emission maximum (in Cc1ccccc1): 400.96 nm
emission maximum (in O): 507.69 nm
emission maximum (in c1ccccc1): 399.81 nm

SMILES: C[Si](C)(C)C#Cc1cc2ccc3cc(C#C[Si](C)(C)C)cc4ccc(c1)c2c34
emission maximum (in Cc1ccccc1): 407 nm

SMILES: F[B-]1(F)OC(c2ccccc2)=CC(c2ccccc2)=[O+]1
emission maximum (in CC#N): 398 nm
emission maximum (in ClC(Cl)(Cl)Cl): 389 nm

SMILES: CCCCCCCCOc1cc(/C=C/c2cc(OCCCCCCCC)c(/C=C/c3cc(OCCCCCCCC)c(/C=C/c4ccncc4)cc3OCCCCCCCC)cc2OCCCCCCCC)c(OCCCCCCCC)cc1/C=C/c1ccncc1
emission maximum (in ClCCl): 570 nm

SMILES: C1=Cc2ccc(N(c3ccccc3)c3cccc4ccccc34)cc2C2(c3cc(N(c4ccccc4)c4cccc5ccccc45)ccc31)c1ccccc1-c1ccccc12
emission maximum (in ClCCl): 454 nm

SMILES: N#Cc1cc(/C=C/c2ccc(N(c3ccccc3)c3ccccc3)cc2)ccc1/C=C/c1ccc(/C=C/c2ccc(N(c3ccccc3)c3ccccc3)cc2)cc1C#N
emission maximum (in ClCCl): 614 nm

SMILES: CC(C)(C)c1ccc2c(c1)c1cc(C(C)(C)C)ccc1n2-c1ccc(C(=C(C#N)C#N)c2ccc(-n3c4ccc(C(C)(C)C)cc4c4cc(C(C)(C)C)ccc43)cc2)cc1
emission maximum (in Cc1ccccc1): 566 nm

SMILES: CC1=[N+]2C(=C(c3ccccc3)c3c4c(c(C)n3[B-]2(F)F)C2CCC4CC2)C2=C1C1CCC2CC1
emission maximum (in CC#N): 543 nm

Now from value to compound:

emission maximum (in ClCCl): 479 nm
SMILES: CCN(CC)c1ccc2cc(-c3nc4ccccc4n3-c3ccccc3)c(=O)oc2c1

emission maximum (in C1CCCCC1): 468 nm
emission maximum (in C1CCOC1): 483 nm
emission maximum (in C1COCCO1): 481 nm
emission maximum (in CC#N): 491 nm
emission maximum (in CCCCCCC): 467 nm
emission maximum (in CCO): 493 nm
emission maximum (in CN(C)C=O): 492 nm
emission maximum (in CO): 496 nm
emission maximum (in O): 485 nm
emission maximum (in OCCO): 500 nm
SMILES: Cc1nn(-c2ccccc2)c(C2=NN(c3ccc(Br)cc3)[C@@H](c3ccccc3)[C@@H]2c2ccccc2)c1C#N

emission maximum (in ClC(Cl)Cl): 552 nm
SMILES: C(=N\c1ccc(-c2cn3nc(-c4cccs4)sc3n2)cc1)/c1ccc(N(c2ccccc2)c2ccccc2)cc1

emission maximum (in O): 680 nm
SMILES: COc1ccc2c(c1)CCC1=C(c3ccccc3)C3=C(c4ccc5cccc(O)c5n4)c4c(-c5ccccc5)c5c(n4[B-](F)(F)[N+]3=C12)-c1ccc(OC)cc1CC5

emission maximum (in ClC(Cl)Cl): 700 nm
SMILES: COc1ccc(N(c2ccc(OC)cc2)c2ccc(-c3ccc(C=C(C#N)C#N)s3)cc2)cc1

emission maximum (in C1CCOC1): 423 nm
SMILES: COc1ccc(-c2cnc3nn4ccccc4c3c2)cc1

emission maximum (in C1CCOC1): 457 nm
SMILES: COc1ccc(-c2cc3oc(=O)cc(C)c3cc2-c2ccc(OC)c(OC)c2)cc1OC

emission maximum (in ClC(Cl)Cl): 513 nm
SMILES: COc1ccc(-n2c3c4ccccc4nc(-c4ccc(C#N)cc4)c3c3c2c2c(-c4ccc(C#N)cc4)nc4ccccc4c2n3-c2ccc(OC)cc2)cc1

emission maximum (in ClCCl): 434 nm
SMILES: COc1ccc(Oc2ccc3c4c(cccc24)C(=O)N(c2c(C(C)C)cccc2C(C)C)C3=O)cc1

emission maximum (in C1COCCO1): 584 nm
SMILES: CC(=O)Nc1ccc(C2=C/C(=C\c3ccc(C#N)cc3)C(=O)N2)cc1

emission maximum (in C1CCCCC1): 411 nm
emission maximum (in CC#N): 421 nm
emission maximum (in CO): 417 nm
emission maximum (in ClCCl): 418 nm
SMILES: COc1c2ccccc2c(OC)c2c1c1c(F)cccc1n2C

emission maximum (in CO): 581 nm
SMILES: CCN(CC)c1ccc(C2=C3C(C)=CC(/C=C/c4ccc(OCC(=O)OC)cc4)=[N+]3[B-](F)(F)n3c(C)cc(C)c32)cc1

emission maximum (in ClCCl): 384 nm
SMILES: c1ccc(-n2c3ccccc3c3cc(-c4cccc(-n5c6cccnc6c6c7sc8ccccc8c7ccc65)c4)ccc32)cc1

emission maximum (in CC#N): 498 nm
emission maximum (in CCO): 407 nm
emission maximum (in CN(C)C=O): 402 nm
emission maximum (in ClCCl): 472 nm
SMILES: c1ccc(-c2csc(-c3ccncc3)n2)cc1

emission maximum (in C1CCOC1): 504.66 nm
SMILES: CC(C)(C)c1ccc(-c2nc(-c3ccc(C(C)(C)C)cc3)nc(-c3cc(C#N)c(-n4c5ccccc5c5c6oc7ccccc7c6ccc54)c(C#N)c3)n2)cc1

emission maximum (in C1CCOC1): 447 nm
SMILES: CC(C)(C)c1ccc(C2=C(c3ccc(C(C)(C)C)cc3)[Si](c3ccccc3)(c3ccccc3)c3ccccc32)cc1

emission maximum (in CS(C)=O): 446 nm
SMILES: N#CC1=C(N)n2c(=O)c3ccccc3c(=O)n2C1c1cccs1 (stereo not drawn)

emission maximum (in CS(C)=O): 407 nm
SMILES: Fc1ccc2c(c1)sc1nc(-c3ccccc3)sc12

emission maximum (in ClC(Cl)Cl): 535 nm
SMILES: Cc1ccc(C(=O)/N=c2\oc3cccc4c5c(-c6ccccc6)oc6cccc(c(c2-c2ccccc2)c34)c65)cc1

emission maximum (in ClC(Cl)Cl): 348 nm
SMILES: C(#Cc1ccc(C#Cc2ccccc2)cc1)c1ccccc1

emission maximum (in CCO): 575 nm
emission maximum (in ClCCl): 577 nm
emission maximum (in O): 569 nm
SMILES: Oc1c(-c2ccco2)cccc1-c1nc2ccccc2s1

emission maximum (in CC#N): 380 nm
SMILES: C(#Cc1nccnc1C#Cc1ccccc1)c1ccccc1

emission maximum (in C1CCOC1): 460 nm
SMILES: N#Cc1c(N2CCCCC2)cc(-c2ccc3ccc4cccc5ccc2c3c45)c2c1-c1ccccc1C2

emission maximum (in C1COCCO1): 354 nm
SMILES: c1ccc(-c2cc(-c3ccccc3)cc(-c3ccccc3)c2)cc1

emission maximum (in ClCCl): 407 nm
SMILES: CCCCn1c(-c2ccc(-c3nnc(-c4ccc(-c5nc6ccccc6n5CCCC)cc4)o3)cc2)nc2ccccc21

emission maximum (in CCO): 501 nm
emission maximum (in ClCCl): 502 nm
emission maximum (in O): 596 nm
SMILES: N#CC(C#N)=Cc1ccc(-c2ccc(-c3nc4ccccc4s3)c(O)c2)o1

emission maximum (in ClC(Cl)Cl): 567 nm
SMILES: N#Cc1nc(N(Cc2ccccc2Cl)Cc2ccccc2Cl)c(C#N)nc1N(Cc1ccccc1Cl)Cc1ccccc1Cl

emission maximum (in CS(C)=O): 569 nm
SMILES: CN1/C(=C/C=C/C2=[N+](C)c3ccccc3C2(C)C)Sc2ccccc21

emission maximum (in ClCCl): 566 nm
SMILES: COc1ccc2cc(C#CC3=C4CCc5ccccc5C4=[O+][B-](F)(F)O3)ccc2c1

emission maximum (in ClC(Cl)Cl): 491 nm
SMILES: N#CC1=CC=CC(C#N)=P1(c1ccccc1)c1ccccc1

emission maximum (in ClC(Cl)Cl): 673 nm
SMILES: F[B-]1(F)n2c(cc3sc4ccccc4c32)C(c2ccc(I)cc2)=C2C=c3sc4ccccc4c3=[N+]21
